Values quoted from earlier work as cited in US20210095260A1, “BI- OR MULTI-DIFFERENTIATED ORGANOID” (IMBA - INSTITUT FÜR MOLEKULARE BIOTECHNOLOGIE GMBH, priority 2017, published 2021).

Tested on: hPSCs
Conditions: inhibition of SHH activity; cited from earlier work

With `CC1=C2C[C@H]3[C@@H](CC=C4C[C@@H](O)CC[C@@]43C)[C@@H]2CC[C@]12O[C@@H]1C[C@H](C)CN[C@H]1[C@H]2C` [CycA, cyclopamine A] as the molecule, how does the dorsal forebrain identity read?
Its dorsal forebrain identity is “can enhance dorsal forebrain identity”.
